Results published in patent publication US20210284668A1, “GOLD (I)-PHOSPHINE 1,2,3-TRIAZOLE DERIVATIVES WITH ANTIBIOTIC PROPERTIES” (Centre National de la Recherche Scientifique, priority 2018, published 2021).
Where “and” joins values, the source holds several entries; their conditions need not be identical. Identical values can stand only once.

Tests used:
S. aureus ATCC25923 = assay: MIC by microdilution, S. aureus ATCC25923; type: cell-based, Staphylococcus aureus; details: S. aureus ATCC25923 (MecA negative, wild-type), Mueller-Hinton broth, in duplicate
Experimental: (§1) The antibacterial profile of each derivative was evaluated by the standard microdilution method for susceptibility testing on 16 different strains, following the guidelines of CLSI. The selected panel included: • S. aureus ATCC25923 (MecA negative, wild-type) • S. aureus ATCC29213 (MecA negative, wild-type) • S. aureus ATCC700699 (MecA positive, glycopeptide resistant) • S. aureus ST20131365 (MecA positive, glycopeptide resistant) • S. epidermidis ATCC14990 (MecA negative, wild-type) • S. epidermidis ATCC35984 (MecA positive) • S. epidermidis ST20140436 (MecA positive, glycopeptide resistant) • S. epidermidis ST20150446 (MecA positive, glycopeptide resistant) • E. faecalis JH2-2 (wild-type) • E. faecalis UCN41 (VanA positive, glycopeptide resistant) • E. faecalis V583 (VanB positive, glycopeptide resistant) • E. faecium ATCC19434T (wild-type) • E. faecium BM4147 (VanA positive, glycopeptide resistant) • E. faecium AUS0004 (VanB positive, glycopeptide resistant) • E. coli ATCC25922 (wild-type) • Clostridium difficile ATCC9689 (wild-type)
(§2) Both series issued from the SAR study were evaluated for their antibacterial activity on a panel of characterized strains obtained from the French National Reference Centers for Staphylococci (Lyon, Pr. Fréderique Laurent) and for Enterococci (Caen, Pr. Vincent Cattoir), respectively. As shown in the following tables, both series contain very active compounds on multi-resistant Gram-positive bacteria (Minimal Inhibitory Concentrations lower than comparator antibiotic ampicillin). Furthermore, a very important antibacterial effect has been shown too on a strain of Clostridium difficile, a Gram-positive, spore-forming, bacillus responsible for post-antibiotic diarrhoae.
(§3) The antibacterial activity of test compounds was evaluated on a selected panel of Gram-positive (4 Staphylococcus aureus, 4 Staphylococcus epidermidis, 3 Enterococcus faecalis, 3 Enterococcus faecium, 1 Clostridium difficile) and Gram-negative strains (1 Escherichia coli, 1 Klebsiella pneumoniae, 1 Pseudomonas aeruginosa, 1 Acinetacter baumannii) with known features of antibiotic resistance (from wild-type susceptibility to multi-drug resistance). The Minimal Inhibitory Concentration (MIC) of test compounds was determined in duplicate by the microdilution method in 96-well microplates with a final volume of 100 μL per well and Mueller-Hinton broth as the growth medium, as recommended by the CLSI (Clinical and Laboratory Standards Institute, document Mo7-A10, USA).

S. aureus ATCC700699 = assay: MIC by microdilution, S. aureus ATCC700699; type: cell-based, Staphylococcus aureus; design: unit not given here; details: S. aureus ATCC700699 (MecA positive, glycopeptide resistant), in duplicate
Experimental: as §1, §2, §3

S. epidermidis ATCC14990 = assay: MIC by microdilution, S. epidermidis ATCC14990; type: cell-based, Staphylococcus epidermidis; details: S. epidermidis ATCC14990 (MecA negative, wild-type), in duplicate
Experimental: as §1, §2, §3

S. epidermidis ATCC35984 = assay: MIC by microdilution, S. epidermidis ATCC35984; type: cell-based, Staphylococcus epidermidis; details: S. epidermidis ATCC35984 (MecA positive), in duplicate
Experimental: as §1, §2, §3

[1] = system: S. epidermidis ST20140436; assay: MIC by microdilution, S. epidermidis ST20140436; type: cell-based, Staphylococcus epidermidis; details: S. epidermidis ST20140436 (MecA positive, glycopeptide resistant), in duplicate
Experimental: as §1, §2, §3

[2] = system: S. epidermidis ST20150446; assay: MIC by microdilution, S. epidermidis ST20150446; type: cell-based, Staphylococcus epidermidis; details: S. epidermidis ST20150446 (MecA positive, glycopeptide resistant), in duplicate
Experimental: as §1, §2, §3

E. faecalis JH2-2 = assay: MIC by microdilution, E. faecalis JH2-2; type: cell-based, Enterococcus faecalis; design: unit not given here; details: E. faecalis JH2-2 (wild-type), in duplicate
Experimental: as §1, §2, §3

E. faecalis UCN41 = assay: MIC by microdilution, E. faecalis UCN41; type: cell-based, Enterococcus faecalis; design: unit not given here; details: E. faecalis UCN41 (VanA positive, glycopeptide resistant), in duplicate
Experimental: as §1, §2, §3

E. faecalis V583 = assay: MIC by microdilution, E. faecalis V583; type: cell-based, Enterococcus faecalis; details: E. faecalis V583 (VanB positive, glycopeptide resistant), in duplicate
Experimental: as §1, §2, §3

E. faecium ATCC19434T = assay: MIC by microdilution, E. faecium ATCC19434T; type: cell-based, Enterococcus faecium; design: unit not given here; details: E. faecium ATCC19434T (wild-type), in duplicate
Experimental: as §1, §2, §3

E. faecium BM4147 = assay: MIC by microdilution, E. faecium BM4147; type: cell-based, Enterococcus faecium; design: unit not given here; details: E. faecium BM4147 (VanA positive, glycopeptide resistant), in duplicate
Experimental: as §1, §2, §3

E. faecium AUS0004 = assay: MIC by microdilution, E. faecium AUS0004; type: cell-based, Enterococcus faecium; details: E. faecium AUS0004 (VanB positive, glycopeptide resistant), in duplicate
Experimental: as §1, §2, §3

E. coli ATCC25922 = assay: MIC by microdilution, E. coli ATCC25922; type: cell-based, Escherichia coli; details: E. coli ATCC25922 (wild-type), in duplicate
Experimental: as §1, §2, §3

[3] = system: Clostridium difficile ATCC700057; assay: MIC by microdilution, Clostridium difficile; type: cell-based; details: strain ATCC70057 [sic] (Tables 1-2) / ATCC700057 (Tables 3-10), in duplicate
[4] = system: panel of Gram-positive and Gram-negative strains; assay: Antibacterial profile on the selected panel of strains; type: cell-based; details: summary of Tables 1-12
Experimental: as §1, §2, §3

S. aureus ATCC29213 = assay: MIC by microdilution, S. aureus ATCC29213; type: cell-based, Staphylococcus aureus; details: S. aureus ATCC29213 (MecA negative, wild-type), Mueller-Hinton broth, in duplicate
Experimental: as §1, §2, §3

S. aureus ST20131365 = assay: MIC by microdilution, S. aureus ST20131365; type: cell-based, Staphylococcus aureus; details: S. aureus ST20131365 (MecA positive, glycopeptide resistant), in duplicate
Experimental: as §1, §2, §3

| Structure (SMILES) | Minimal Inhibitory Concentration (MIC) (S. aureus ATCC25923) | Minimal Inhibitory Concentration (MIC) (S. aureus ATCC700699) | Minimal Inhibitory Concentration (MIC) (S. epidermidis ATCC14990) | Minimal Inhibitory Concentration (MIC) (S. epidermidis ATCC35984) | Minimal Inhibitory Concentration (MIC) [1] | Minimal Inhibitory Concentration (MIC) [2] | Minimal Inhibitory Concentration (MIC) (E. faecalis JH2-2) | Minimal Inhibitory Concentration (MIC) (E. faecalis UCN41) | Minimal Inhibitory Concentration (MIC) (E. faecalis V583) | Minimal Inhibitory Concentration (MIC) (E. faecium ATCC19434T) | Minimal Inhibitory Concentration (MIC) (E. faecium BM4147) | Minimal Inhibitory Concentration (MIC) (E. faecium AUS0004) | Minimal Inhibitory Concentration (MIC) (E. coli ATCC25922) | Minimal Inhibitory Concentration (MIC) [3] | antimicrobial / antibacterial activity (in words) [4] | Minimal Inhibitory Concentration (MIC) (S. aureus ATCC29213) | Minimal Inhibitory Concentration (MIC) (S. aureus ST20131365) |
| --- | --- | --- | --- | --- | --- | --- | --- | --- | --- | --- | --- | --- | --- | --- | --- | --- | --- |
| CC[P+](CC)(CC)[Au-][c]1nn[nH]c1CCS(N)(=O)=O [TMB36] | ≤0.06 | 0.125 | ≤0.06 | ≤0.06 | ≤0.06 | ≤0.06 | 0.25 | 0.25 | 0.5 | 0.25 | 0.5 | 0.25 | >8 | ≤0.06 | have antimicrobial activity | – | – |
| O=C(CCc1cnn[nH]1)N[C@@H](C(=O)O)c1ccccc1 [TMB46] | >8 | >8 | >8 | >8 | >8 | >8 | >8 | >8 | >8 | >8 | >8 | >8 | – | >8 | do not show an antibacterial activity | >8 | >8 |
| CC[P+](CC)(CC)[Au-][c]1nn[nH]c1-c1cccc(C(=O)NC(C(=O)NC2C(=O)N3C2SC(C)(C)C3C(=O)O)c2ccccc2)c1 (stereo not shown) [TMB12] | – | 0.125 and 0.25 | ≤0.06 | ≤0.06 | ≤0.06 | ≤0.06 | 0.5 | 0.5 and 1 | 1 | 0.5 | 1 | 0.5 | >8 | ≤0.06 | have antimicrobial activity | – | 0.5 |
| CC[P+](CC)(CC)[Au-][c]1nn[nH]c1-c1ccc(C(=O)O)cn1 [TMB39] | ≤0.06 | ≤0.06 | ≤0.06 | ≤0.06 | ≤0.06 | ≤0.06 | 0.25 | 0.25 | 0.25 | 0.125 | 0.125 | 0.5 | – | 0.25 and 0.5 | have antimicrobial activity | ≤0.06 | ≤0.06 |
| CC[P+](CC)(CC)[Au-][c]1nn[nH]c1CCC(=O)NC(C(=O)O)c1ccccc1 (stereo not shown) [TMB21] | – | 0.125 | ≤0.06 | ≤0.06 | ≤0.06 | ≤0.06 | 0.25 | 0.25 | 0.25 and 0.5 | 0.25 | 0.25 and 0.5 | 0.25 | >8 | ≤0.06 | have antimicrobial activity | – | 0.125 |
| CC[P+](CC)(CC)[Au-][c]1nn[nH]c1COC(=O)NC(C(=O)O)c1ccccc1 (stereo not shown) [TMB45] | 0.125 | 0.25 | ≤0.06 | ≤0.06 | ≤0.06 | ≤0.06 | 0.5 | 0.25 | 0.5 | 0.25 | 0.25 | 0.5 | – | 0.125 | have antimicrobial activity | 0.25 | 0.25 |
| CC[P+](CC)(CC)[Au-][c]1nn[nH]c1-c1cccc(C(=O)NC(C(=O)O)c2ccccc2)c1 (stereo not shown) [TMB20] | 0.125 | 0.125 | ≤0.06 | ≤0.06 | ≤0.06 | – | 0.25 | 0.25 | 0.25 and 0.5 | 0.25 | 0.25 and 0.5 | 0.25 | >8 | ≤0.06 | have antimicrobial activity | – | 0.125 |
| O=C(N[C@@H](C(=O)O)c1ccccc1)OCc1cnn[nH]1 [TMB41] | >8 | >8 | >8 | >8 | >8 | >8 | >8 | >8 | >8 | >8 | >8 | >8 | – | >8 | do not show an antibacterial activity | >8 | >8 |
